Columns and labels:
Type in all cases: in vivo
Parameters in all cases: key: 5=81-100%; 4=61-80%; 3=41-60%; 2=21-40%; 1=1-20%; 0=no damage to the plant; -=not tested
[1] = system: Amaranthus palmeri (AMAPA); experiment: Pre-emergence test, herbicidal damage; conditions: 1000 g/ha unless otherwise stated, evaluated after 13 days, five-point scale
[2] = system: Amaranthus retoflexus (AMARE); experiment: Pre-emergence test, herbicidal damage; conditions: 1000 g/ha unless otherwise stated, evaluated after 13 days, five-point scale
[3] = system: Echinochloa crus-galli (ECHCG); experiment: Pre-emergence test, herbicidal damage; conditions: 1000 g/ha unless otherwise stated, evaluated after 13 days, five-point scale
Zea mays (ZEAMX) [4] = experiment: Pre-emergence test, herbicidal damage; conditions: 1000 g/ha unless otherwise stated, evaluated after 13 days, five-point scale
[5] = system: Ipomoea hederacea (IPOHE); experiment: Pre-emergence test, herbicidal damage; conditions: 1000 g/ha unless otherwise stated, evaluated after 13 days, five-point scale
Setaria faberi (SETFA) [6] = experiment: Pre-emergence test, herbicidal damage; conditions: 1000 g/ha unless otherwise stated, evaluated after 13 days, five-point scale
[7] = system: Amaranthus palmeri (AMAPA); experiment: Post-emergence test, herbicidal damage; conditions: sprayed after 8 days cultivation, 1000 g/ha unless otherwise stated, evaluated after 13 days, five-point scale
Method: (§1) Seeds of a variety of test species are sown in standard soil in pots Amaranthus palmeri (AMAPA), (Amaranthus retoflexus (AMARE), Echinochloa crus-galli (ECHCG), Zea mays (ZEAMX), Ipomoea 5 hederacea (IPOHE), and Setaria faberi (SETFA). After 8 days cultivation under controlled conditions in a glasshouse (at 24° C./16° C., day/night; 14 hours light; 65% humidity), the plants are sprayed with an aqueous spray solution derived from the formulation of the technical active ingredient in acetone/water (50:50) solution containing 0.5% Tween 20 (polyoxyethelyene sorbitan monolaurate, CAS RN 9005-64-5). Compounds are applied at 1000 g/ha unless otherwise stated. The test plants are then grown in a glasshouse under controlled conditions in a glasshouse (at 24° C./16° C., day/night; 14 hours light; 65% humidity) and watered twice daily. After 13 days the test is evaluated for the percentage damage caused to the plant. The biological activities are shown in the following table on a five-point scale (5=81-100%; 4=61-80%; 3=41-60%; 2=21-40%; 1=1-20%; 0=no damage to the plant; -=not tested).

[8] = system: Amaranthus retoflexus (AMARE); experiment: Post-emergence test, herbicidal damage; conditions: sprayed after 8 days cultivation, 1000 g/ha unless otherwise stated, evaluated after 13 days, five-point scale
Method: as §1

[9] = system: Echinochloa crus-galli (ECHCG); experiment: Post-emergence test, herbicidal damage; conditions: sprayed after 8 days cultivation, 1000 g/ha unless otherwise stated, evaluated after 13 days, five-point scale
Method: as §1

[10] = system: Ipomoea hederacea (IPOHE); experiment: Post-emergence test, herbicidal damage; conditions: sprayed after 8 days cultivation, 1000 g/ha unless otherwise stated, evaluated after 13 days, five-point scale
Method: as §1

Setaria faberi (SETFA) [11] = experiment: Post-emergence test, herbicidal damage; conditions: sprayed after 8 days cultivation, 1000 g/ha unless otherwise stated, evaluated after 13 days, five-point scale
Method: as §1

Zea mays (ZEAMX) [12] = experiment: Post-emergence test, herbicidal damage; conditions: sprayed after 8 days cultivation, 1000 g/ha unless otherwise stated, evaluated after 13 days, five-point scale
Method: as §1

Cc1[nH]c(=O)c(C(=O)O)c(-c2ccc(Cl)c(Cl)c2)c1Br [Compound 1, 5-bromo-4-(3,4-dichlorophenyl)-6-methyl-2-oxo-1H-pyridine-3-carboxylic acid]
percentage damage caused to the plant, AMAPA [1]: 3 (3=41-60%)
percentage damage caused to the plant, AMARE [2]: 2 (2=21-40%)
percentage damage caused to the plant, ECHCG [3]: 1 (1=1-20%)
percentage damage caused to the plant, ZEAMX (Zea mays (ZEAMX) [4]): 0
percentage damage caused to the plant, IPOHE [5]: 0
percentage damage caused to the plant, SEFTA (Setaria faberi (SETFA) [6]): 0
percentage damage caused to the plant, AMAPA [7]: 5 (5=81-100%)
percentage damage caused to the plant, AMARE [8]: 5 (5=81-100%)
percentage damage caused to the plant, ECHCG [9]: 0
percentage damage caused to the plant, IPOHE [10]: 1 (1=1-20%)
percentage damage caused to the plant, SEFTA (Setaria faberi (SETFA) [11]): 1 (1=1-20%)
percentage damage caused to the plant, ZEAMX (Zea mays (ZEAMX) [12]): 1 (1=1-20%)

Cc1[nH]c(=O)c(C(=O)O)c(-c2ccc(Cl)c(Cl)c2)c1Cl [Compound 2, 5-chloro-4-(3,4-dichlorophenyl)-6-methyl-2-oxo-1H-pyridine-3-carboxylic acid]
percentage damage caused to the plant, AMAPA [1]: 0
percentage damage caused to the plant, AMARE [2]: 0
percentage damage caused to the plant, ECHCG [3]: 0
percentage damage caused to the plant, ZEAMX (Zea mays (ZEAMX) [4]): 0
percentage damage caused to the plant, IPOHE [5]: 0
percentage damage caused to the plant, SEFTA (Setaria faberi (SETFA) [6]): 0
percentage damage caused to the plant, AMAPA [7]: 0
percentage damage caused to the plant, AMARE [8]: 0
percentage damage caused to the plant, ECHCG [9]: 0
percentage damage caused to the plant, IPOHE [10]: 0
percentage damage caused to the plant, SEFTA (Setaria faberi (SETFA) [11]): 0
percentage damage caused to the plant, ZEAMX (Zea mays (ZEAMX) [12]): 0

Cc1c(Cl)c(-c2ccc(Cl)c(Cl)c2)c(C(=O)O)c(=O)n1-c1ccc(Cl)cc1 [Compound 3, 5-chloro-1-(4-chlorophenyl)-4-(3,4-dichlorophenyl)-6-methyl-2-oxo-pyridine-3-carboxylic acid]
percentage damage caused to the plant, AMAPA [1]: 4 (4=61-80%)
percentage damage caused to the plant, AMARE [2]: 2 (2=21-40%)
percentage damage caused to the plant, ECHCG [3]: 1 (1=1-20%)
percentage damage caused to the plant, ZEAMX (Zea mays (ZEAMX) [4]): 0
percentage damage caused to the plant, IPOHE [5]: 0
percentage damage caused to the plant, SEFTA (Setaria faberi (SETFA) [6]): 2 (2=21-40%)
percentage damage caused to the plant, AMAPA [7]: 4 (4=61-80%)
percentage damage caused to the plant, AMARE [8]: 4 (4=61-80%)
percentage damage caused to the plant, ECHCG [9]: 0
percentage damage caused to the plant, IPOHE [10]: 2 (2=21-40%)
percentage damage caused to the plant, SEFTA (Setaria faberi (SETFA) [11]): 1 (1=1-20%)
percentage damage caused to the plant, ZEAMX (Zea mays (ZEAMX) [12]): 1 (1=1-20%)

Cc1c(Cl)c(-c2ccc(Cl)c(Cl)c2)c(C(=O)O)c(=O)n1C [Compound 4, 5-chloro-4-(3,4-dichlorophenyl)-1,6-dimethyl-2-oxo-pyridine-3-carboxylic acid]
percentage damage caused to the plant, AMAPA [1]: 1 (1=1-20%)
percentage damage caused to the plant, AMARE [2]: 1 (1=1-20%)
percentage damage caused to the plant, ECHCG [3]: 0
percentage damage caused to the plant, ZEAMX (Zea mays (ZEAMX) [4]): 0
percentage damage caused to the plant, IPOHE [5]: 0
percentage damage caused to the plant, SEFTA (Setaria faberi (SETFA) [6]): 0
percentage damage caused to the plant, AMAPA [7]: 2 (2=21-40%)
percentage damage caused to the plant, AMARE [8]: 1 (1=1-20%)
percentage damage caused to the plant, ECHCG [9]: 0
percentage damage caused to the plant, IPOHE [10]: 0
percentage damage caused to the plant, SEFTA (Setaria faberi (SETFA) [11]): 0
percentage damage caused to the plant, ZEAMX (Zea mays (ZEAMX) [12]): 0

Cc1c(Br)c(-c2ccc(Cl)c(Cl)c2)c(C(=O)O)c(=O)n1C [Compound 5, 5-bromo-4-(3,4-dichlorophenyl)-1,6-dimethyl-2-oxo-pyridine-3-carboxylic acid]
percentage damage caused to the plant, AMAPA [1]: 0
percentage damage caused to the plant, AMARE [2]: 0
percentage damage caused to the plant, ECHCG [3]: 0
percentage damage caused to the plant, ZEAMX (Zea mays (ZEAMX) [4]): 0
percentage damage caused to the plant, IPOHE [5]: 0
percentage damage caused to the plant, SEFTA (Setaria faberi (SETFA) [6]): 0
percentage damage caused to the plant, AMAPA [7]: 1 (1=1-20%)
percentage damage caused to the plant, AMARE [8]: 1 (1=1-20%)
percentage damage caused to the plant, ECHCG [9]: 0
percentage damage caused to the plant, IPOHE [10]: 1 (1=1-20%)
percentage damage caused to the plant, SEFTA (Setaria faberi (SETFA) [11]): 0
percentage damage caused to the plant, ZEAMX (Zea mays (ZEAMX) [12]): 1 (1=1-20%)

Cc1cc(-c2ccc(Cl)c(Cl)c2)c(C(=O)O)c(=O)n1-c1ccc(F)cc1F [Compound 14, 4-(3,4-dichlorophenyl)-1-(2,4-difluorophenyl)-6-methyl-2-oxo-pyridine-3-carboxylic acid]
percentage damage caused to the plant, AMARE [2]: 0
percentage damage caused to the plant, ECHCG [3]: 0
percentage damage caused to the plant, ZEAMX (Zea mays (ZEAMX) [4]): 0
percentage damage caused to the plant, IPOHE [5]: 0
percentage damage caused to the plant, SEFTA (Setaria faberi (SETFA) [6]): 0
percentage damage caused to the plant, AMAPA [7]: 1 (1=1-20%)
percentage damage caused to the plant, AMARE [8]: 1 (1=1-20%)
percentage damage caused to the plant, ECHCG [9]: 1 (1=1-20%)
percentage damage caused to the plant, IPOHE [10]: 0
percentage damage caused to the plant, SEFTA (Setaria faberi (SETFA) [11]): 1 (1=1-20%)
percentage damage caused to the plant, ZEAMX (Zea mays (ZEAMX) [12]): 1 (1=1-20%)

Cc1c(Br)c(-c2ccc(Cl)c(Cl)c2)c(C(=O)O)c(=O)n1-c1ccc(Cl)cc1F [Compound 21, 5-bromo-1-(4-chloro-2-fluoro-phenyl)-4-(3,4-dichlorophenyl)-6-methyl-2-oxo-pyridine-3-carboxylic acid]
percentage damage caused to the plant, AMAPA [1]: 4 (4=61-80%)
percentage damage caused to the plant, AMARE [2]: 4 (4=61-80%)
percentage damage caused to the plant, ECHCG [3]: 1 (1=1-20%)
percentage damage caused to the plant, ZEAMX (Zea mays (ZEAMX) [4]): 0
percentage damage caused to the plant, SEFTA (Setaria faberi (SETFA) [6]): 1 (1=1-20%)
percentage damage caused to the plant, AMAPA [7]: 4 (4=61-80%)
percentage damage caused to the plant, ECHCG [9]: 0
percentage damage caused to the plant, IPOHE [10]: 1 (1=1-20%)
percentage damage caused to the plant, SEFTA (Setaria faberi (SETFA) [11]): 1 (1=1-20%)
percentage damage caused to the plant, ZEAMX (Zea mays (ZEAMX) [12]): 1 (1=1-20%)

Cc1cc(-c2ccc(Cl)c(Cl)c2)c(C(=O)O)c(=O)n1Cc1ccc(C(F)(F)F)cc1F [Compound 27, 4-(3,4-dichlorophenyl)-1-[[2-fluoro-4-(trifluoromethyl)phenyl]methyl]-6-methyl-2-oxo-pyridine-3-carboxylic acid]
percentage damage caused to the plant, AMAPA [1]: 1 (1=1-20%)
percentage damage caused to the plant, AMARE [2]: 0
percentage damage caused to the plant, ZEAMX (Zea mays (ZEAMX) [4]): 0
percentage damage caused to the plant, IPOHE [5]: 0
percentage damage caused to the plant, SEFTA (Setaria faberi (SETFA) [6]): 0
percentage damage caused to the plant, AMAPA [7]: 1 (1=1-20%)
percentage damage caused to the plant, AMARE [8]: 0
percentage damage caused to the plant, ECHCG [9]: 0
percentage damage caused to the plant, SEFTA (Setaria faberi (SETFA) [11]): 0
percentage damage caused to the plant, ZEAMX (Zea mays (ZEAMX) [12]): 0

Cc1c(Br)c(-c2ccc(Cl)c(Cl)c2)c(C(=O)O)c(=O)n1-c1ccc(F)cc1F [Compound 29, 5-bromo-4-(3,4-dichlorophenyl)-1-(2,4-difluorophenyl)-6-methyl-2-oxo-pyridine-3-carboxylic acid]
percentage damage caused to the plant, AMARE [2]: 1 (1=1-20%)
percentage damage caused to the plant, ECHCG [3]: 1 (1=1-20%)
percentage damage caused to the plant, ZEAMX (Zea mays (ZEAMX) [4]): 0
percentage damage caused to the plant, IPOHE [5]: 1 (1=1-20%)
percentage damage caused to the plant, SEFTA (Setaria faberi (SETFA) [6]): 1 (1=1-20%)
percentage damage caused to the plant, AMARE [8]: 1 (1=1-20%)
percentage damage caused to the plant, ECHCG [9]: 1 (1=1-20%)
percentage damage caused to the plant, IPOHE [10]: 1 (1=1-20%)
percentage damage caused to the plant, SEFTA (Setaria faberi (SETFA) [11]): 1 (1=1-20%)
percentage damage caused to the plant, ZEAMX (Zea mays (ZEAMX) [12]): 0

— patent US20250289787A1, “HERBICIDAL 2-OXO-NICOTINIC ACID DERIVATIVES” (SYNGENTA CROP PROTECTION AG, priority 2022, published 2025)
